Data taken from patent US8871728B2, “Non-peptide macrocyclic histone deacetylese (HDAC) inhibitors and methods of making and using thereof” (Georgia Tech Research Corporation, priority 2007, dated 2014).
Values after ≈ are worked out from the molar mass of the structure shown. Values joined by “and” are separate entries in the source; they are usually repeats but may differ in a detail not shown here. Equal entries are not always repeated. Where two headings read alike, the source gives them in different places.

Experiments:
HDAC1 = HDAC1 (Homo sapiens (Human), UniProt Q13547); test: SAMDI mass spectrometry HDAC inhibition assay; format: biochemical; settings: for HDAC1 inhibition, symbol: SAMDI; for HDAC1 % inhibition: at 10 μM, given if the IC50 was above 10 μM
Sequence of HDAC1 (Q13547 whole entry): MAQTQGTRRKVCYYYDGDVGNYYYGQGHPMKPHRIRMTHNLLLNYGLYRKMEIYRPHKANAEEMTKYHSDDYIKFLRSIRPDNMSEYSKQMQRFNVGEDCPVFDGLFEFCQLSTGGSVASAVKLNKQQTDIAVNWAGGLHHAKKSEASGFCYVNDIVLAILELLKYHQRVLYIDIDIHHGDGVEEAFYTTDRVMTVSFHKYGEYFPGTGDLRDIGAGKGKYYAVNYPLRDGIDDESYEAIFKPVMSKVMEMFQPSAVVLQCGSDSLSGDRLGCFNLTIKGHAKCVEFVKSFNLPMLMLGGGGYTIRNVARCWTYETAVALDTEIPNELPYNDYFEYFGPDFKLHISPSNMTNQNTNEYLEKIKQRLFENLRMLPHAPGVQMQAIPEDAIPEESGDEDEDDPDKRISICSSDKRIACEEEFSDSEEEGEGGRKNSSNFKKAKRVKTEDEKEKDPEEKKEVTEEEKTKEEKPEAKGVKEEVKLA
Protocol: (§1) There is precedence that fluorescently labeled substrates can perturb enzyme activity and the effect of inhibitors. […] Additionally, 3-hydroxypyridine-2-ones are highly colored solids and might lead to false positive signals. Mindful of these facts, a label-free SAMDI (self-assembled monolayers for MALDI) mass spectrometry assay was also used to assess HDAC inhibition.
(§2) The SAMDI technique, wherein self-assembled monolayers (SAM) of alkanethiolates on gold are analyzed by matrix assisted laser desorption/ionization (MALDI) mass spectrometry, has been widely used to characterize many biochemical activities, including the deacetylase enzyme family.

HDAC8 = HDAC8 (Homo sapiens (Human), UniProt Q9BY41); test: SAMDI mass spectrometry HDAC inhibition assay; format: biochemical
Sequence of HDAC8 (Q9BY41 whole entry): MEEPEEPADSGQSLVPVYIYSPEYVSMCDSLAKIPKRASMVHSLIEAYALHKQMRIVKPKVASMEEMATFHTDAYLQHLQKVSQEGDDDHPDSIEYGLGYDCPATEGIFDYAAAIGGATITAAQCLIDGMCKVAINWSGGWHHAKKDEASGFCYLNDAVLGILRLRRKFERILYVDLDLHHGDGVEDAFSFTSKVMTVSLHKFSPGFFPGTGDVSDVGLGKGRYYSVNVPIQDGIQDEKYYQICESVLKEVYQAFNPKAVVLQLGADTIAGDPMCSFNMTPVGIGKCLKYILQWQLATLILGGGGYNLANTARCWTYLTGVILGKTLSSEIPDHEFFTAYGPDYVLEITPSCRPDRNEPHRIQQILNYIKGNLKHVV
Protocol: as §1, §2

HDAC6 = HDAC6 (Homo sapiens (Human), UniProt Q9UBN7); test: SAMDI mass spectrometry HDAC inhibition assay; format: biochemical; settings: for inhibition at 10 µM: read-out: HDAC6 % inhibition
Sequence of HDAC6 (Q9UBN7 whole entry): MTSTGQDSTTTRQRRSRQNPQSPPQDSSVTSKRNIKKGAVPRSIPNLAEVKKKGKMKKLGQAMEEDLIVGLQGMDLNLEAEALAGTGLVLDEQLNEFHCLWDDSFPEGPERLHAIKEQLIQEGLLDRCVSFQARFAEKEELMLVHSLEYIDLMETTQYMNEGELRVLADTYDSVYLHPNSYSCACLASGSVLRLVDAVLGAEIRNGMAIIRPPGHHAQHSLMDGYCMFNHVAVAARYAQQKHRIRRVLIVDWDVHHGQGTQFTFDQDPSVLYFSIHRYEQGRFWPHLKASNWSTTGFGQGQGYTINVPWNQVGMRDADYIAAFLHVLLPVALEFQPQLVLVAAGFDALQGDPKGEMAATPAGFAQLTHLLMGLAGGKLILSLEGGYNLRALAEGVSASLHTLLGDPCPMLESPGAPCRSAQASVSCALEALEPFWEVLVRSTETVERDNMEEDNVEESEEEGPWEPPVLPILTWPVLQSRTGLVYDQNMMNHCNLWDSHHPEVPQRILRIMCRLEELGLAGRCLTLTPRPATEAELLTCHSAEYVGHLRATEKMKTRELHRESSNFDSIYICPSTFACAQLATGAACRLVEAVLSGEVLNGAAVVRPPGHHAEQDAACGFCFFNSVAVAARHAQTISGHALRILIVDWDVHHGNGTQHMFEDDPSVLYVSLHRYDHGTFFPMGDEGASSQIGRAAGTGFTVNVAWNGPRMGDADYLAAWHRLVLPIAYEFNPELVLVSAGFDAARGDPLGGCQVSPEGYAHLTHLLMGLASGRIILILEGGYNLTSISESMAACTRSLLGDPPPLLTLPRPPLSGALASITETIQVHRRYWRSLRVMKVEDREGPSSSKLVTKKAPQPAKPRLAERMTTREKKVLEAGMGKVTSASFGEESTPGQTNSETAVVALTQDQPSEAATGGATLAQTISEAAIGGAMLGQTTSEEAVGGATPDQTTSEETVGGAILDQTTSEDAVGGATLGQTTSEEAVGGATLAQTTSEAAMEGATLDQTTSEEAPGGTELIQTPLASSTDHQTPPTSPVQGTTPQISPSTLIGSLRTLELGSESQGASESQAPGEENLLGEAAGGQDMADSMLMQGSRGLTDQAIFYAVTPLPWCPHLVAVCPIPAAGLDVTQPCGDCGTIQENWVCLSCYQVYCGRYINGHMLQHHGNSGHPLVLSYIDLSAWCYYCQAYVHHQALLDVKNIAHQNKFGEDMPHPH
Protocol: as §1
The SAMDI technique, wherein self-assembled monolayers (SAM) of alkanethiolates on gold are analyzed by matrix assisted laser desorption/ionization (MALDI) mass spectrometry, has been widely used to characterize many biochemical activities, including the deacetylase enzyme family. The SAMDI assay was used to measure the inhibition constant (K1) of fragments against HDAC1, HDAC6 and HDAC8 using a previously identified preferred HDAC substrate.

[1] = system: DU 145 (androgen independent prostate cancer); test: Anti-cancer activity screen; format: cell-based
[2] = system: LNCaP (androgen dependent prostate cancer); test: Anti-cancer activity screen; format: cell-based
[3] = system: Jurkat (T cell leukemia overexpressing HDAC8); test: Anti-cancer activity screen; format: cell-based
[4] = system: HeLa nuclear extract HDAC1/2; test: Fluor de Lys HDAC inhibition, HeLa nuclear extract; format: biochemical, human; settings: Table 8; read-out: HDAC Inhibition IC50
Description: Fluor de Lys™ is a fluorescence based HDAC activity assay comprising a combination of fluorogenic Histone deAcetylase Lysyl substrate and a developer. The kit is a highly sensitive and convenient alternative to radiolabeled, acetylated histones or peptide/HPLC methods for the assay of histone deacetylases. This assay is based on the ability of HeLa nuclear extract, which is enriched in HDAC activity, to mediate the deacetylation of the acetylated lysine side chain of the Fluor de Lys substrate. The assay procedure requires two steps. First, incubation of the HeLa nuclear extract with the Fluor de Lys substrate results in substrate deacetylation and thus sensitizes it to the second step. In the second step, treatment of the deacetylated substrate with the Fluor de Lys developer produces a fluorophore. The substrate-developer reaction, under normal circumstances goes to completion in less than 1 min at 25° C. The kit used was the Fluorimetric Assay/Drug Discovery Kit—AK-500 Manual Fluorescent Assay System available from BIOMOL® International, Plymouth Meeting, Pa.
Each IC50 value was obtained by averaging three independent experiments.

[5] = system: Plasmodium falciparum (D6 clone), chloroquine-sensitive; test: Plasmodium growth inhibition, parasite lactate dehydrogenase assay (Malstat); format: cell-based; settings: for IC50: Plasmodium falciparum; for S.I. D6: selective toxicity index, Vero versus D6; for Plasmodium falciparum (D6 clone) IC50: chloroquine-sensitive
Protocol: (§3) The compounds described herein were also evaluated for parasitic activity against Plasmodium falciparum and Leismania donovani. P. falciparum and L. donovani are the causative parasites of malaria and leishmaniasis, two human diseases which constitute a serious threat to public health in tropical and sub-tropical countries. Antimalarial activity was evaluated in vitro using chloroquine-sensitive (D6, Sierra Leone) and chloroquine-resistant (W2, Indochina) strains of P. falciparum. Antileishmanial activity was evaluated in vitro against the promastigote stage of L. donovani.
(§4) Plasmodium growth inhibition was determined by a parasite lactate dehydrogenase assay using Malstat reagent. Inhibition of viability of the promastigote stage of L. donovani was determined using standard Alamar blue assay, modified to a fluorometric assay.
(§5) Macrocyclic histone deacetylase inhibitors were evaluated for parasitic activity against Plasmodium falciparum and Leismania donovani. P. falciparum and L. donovani are the causative parasites of malaria and leishmaniasis, two human diseases which constitute a serious threat to public health in tropical and sub-tropical countries. Antimalarial activity was evaluated in vitro using chloroquine-sensitive (D6, Sierra Leone) and chloroquine-resistant (W2, Indochina) strains of P. falciparum. Antileishmanial activity was evaluated in vitro against the promastigote stage of L. donovani.
as §4

[6] = system: Plasmodium falciparum (W2 clone), chloroquine-resistant; test: as above; format: cell-based; settings: for IC50: Plasmodium falciparum; for Plasmodium falciparum (W2 clone) IC50: chloroquine-resistant
Protocol: as §3, §4, §5, §4

[7] = system: promastigote stage of L. donovani; test: Antileishmanial Alamar blue fluorometric assay; format: cell-based
Protocol: as §3, §4, §5, §4

[8] = Table 14, read-out: HDAC 8 (nm)
[9] = Table 14, read-out: HDAC 6 (nm)
[10] = Homo sapiens, DU-145, calculated IC50 above 20 μM (highest concentration tested) also reported as >20
[11] = calculated IC50 above 20 μM (highest concentration tested) also reported as >20
[12] = Homo sapiens, Jurkat, read-out: Jurkat (μm)
[13] = D6, chloroquine-sensitive, read-out: Plasmodium falciparum (D6 clone) IC50
[14] = W2, chloroquine-resistant, read-out: Plasmodium falciparum (W2 clone) IC50

Oc1cccn(Cc2ccc(Cn3cc(-c4ccccc4)nn3)cc2)c1=S [Compound 168]
HDAC1 inhibition, symbol (HDAC1): NI (No significant Inhibition (below 20% Inhibition)) | IC50 (HDAC8; [8]): 5.47 ± 1.6 µM | IC50 (HDAC6; [9]): 0.534 ± 0.185 µM | IC50 [1, 10]: 16.1 ± 2.24 µM | IC50 ([2]; Homo sapiens, LNCaP): 7.8 ± 0.55 µM | IC50 ([3]; Homo sapiens, Jurkat; read-out: Jurkat (μm)): 6.55 ± 0.91 µM

N#Cc1ccccc1-c1ccc(Cn2cccc(O)c2=S)cc1 [Compound 149c, 1-(2-Cyano-(1,1′-biphenylmethyl))-3-hydroxyoxypyridine-2-thione]
HDAC1 inhibition, symbol (HDAC1): NI (No significant Inhibition (below 20% Inhibition)) | IC50 (HDAC8; SAMDI, read-out: HDAC8 IC50): 1.91 ± 0.771 µM | IC50 (HDAC8; SAMDI, read-out: HDAC8 activity (IC50)): ~2 µM | IC50 (HDAC8; [8]): 1.91 ± 0.771 µM | IC50 (HDAC6; SAMDI, read-out: HDAC6 IC50): 0.372 ± 0.035 µM | IC50 [1, 10]: 30 ± 5.85 µM | IC50 [1, 11]: > 20 µM | IC50 ([2]; Homo sapiens, LNCaP): 14.7 ± 0.84 µM | IC50 [3, 12]: 8.95 ± 0.69 µM

C=C1C[C@H](CC)C(C)(C)[C@H](C)[C@@H](C)N(C)C[C@H](C)CC(C)(C)[C@H](C[C@@H]2C[C@H](C)C[C@H](N(C)Cc3ccc(C(C)C)cc3)[C@H]2C)[C@@H](C)[C@H](C)[C@H]1C [Compd 4]
IC50 [4]: 0.0888 µM | IC50 [5, 13]: 1.3 µg/mL (≈ 1.88 µM) | S.I. D6 [5]: > 3.7 | IC50 [6, 14]: 1.7 µg/mL (≈ 2.46 µM) | S.I. (W2) ([6]; selective toxicity index, Vero versus W2, value in brackets): > 2.8

Oc1cccn(CCCCCCCn2cc(-c3ccccc3)nn2)c1=S [Compound 162f, 1-Phenyltriazolylheptyl-3-hydroxypyridine-2-thione]
HDAC1 inhibition, symbol (HDAC1): NI (No significant Inhibition (below 20% Inhibition)) | HDAC1 % inhibition (HDAC1): 35% | IC50 (HDAC8; SAMDI, read-out: HDAC8 IC50): 0.232 ± 0.019 µM | IC50 (HDAC8; [8]): 1.38 ± 0.205 µM | IC50 (HDAC6; SAMDI, read-out: HDAC6 IC50): 0.955 ± 0.15 µM | IC50 (HDAC6; [9]): 0.955 ± 0.15 µM | IC50 [1]: 17.7 ± 3.28 µM | IC50 [2]: 11 ± 1.92 µM | IC50 ([3]; read-out: Jurkat (μm)): 9.04 ± 1.31 µM

Oc1cccn(CCCCCn2cc(-c3ccccc3)nn2)c1=S [Compound 162d, 1-Phenyltriazolylpentyl-3-hydroxypyridine-2-thione]
HDAC1 inhibition, symbol (HDAC1): NI (No significant Inhibition (below 20% Inhibition)) | HDAC1 % inhibition (HDAC1): 30% | HDAC8 activity difference between 162d and 162e (HDAC8; SAMDI): ~7 fold | IC50 (HDAC8; SAMDI, read-out: HDAC8 IC50): 0.917 µM | IC50 (HDAC8; [8]): 0.917 ± 0.139 µM | IC50 (HDAC6; SAMDI, read-out: HDAC6 IC50): 0.911 µM | IC50 (HDAC6; [9]): 0.911 ± 0.173 µM | IC50 [1]: 9.33 ± 0.96 µM | IC50 [2]: 5.43 ± 0.47 µM | IC50 ([3]; read-out: Jurkat (μm)): 3.27 ± 0.6 µM

C[C@@H]1CC[C@H]2[C@@H](C)C(=O)O[C@@H]3O[C@@]4(C)CC[C@@H]1[C@]32OO4 [Artemisinin, artemisinin, reference compound]
IC50 [5, 13]: 0.004 µg/mL (≈ 0.0142 µM) | Plasmodium falciparum (D6 clone) IC50 [5]: 0.006 µg/mL | IC50 [6, 14]: 0.006 µg/mL (≈ 0.0213 µM) | Plasmodium falciparum (W2 clone) IC50 [6]: 0.009 µg/mL

Oc1cccn(Cc2cn(-c3ccccc3)nn2)c1=S [Compound 154a, 1-Phenyltriazolylmethyl-3-hydroxypyridine-2-thione]
inhibition at 10 µM (HDAC6): 41% | IC50 [1, 10]: 24 ± 7.47 µM | IC50 [1, 11]: > 20 µM | IC50 ([2]; Homo sapiens, LNCaP): 13.1 ± 1.51 µM | IC50 [3, 12]: 4.68 ± 0.34 µM

N=C(N)c1ccc(OCCCCCOc2ccc(C(=N)N)cc2)cc1 [Pentamidine, pentamidine, reference compound]
IC50 ([7]; Leishmania donovani, promastigotes, read-out: Antileshmanial activity IC50): 0.9 µg/mL (≈ 2.64 µM) | Antileshmanial activity IC50 ([7]; promastigotes): 1.4 µg/mL

N#Cc1cccc(-c2cn(CCCCCn3cccc(O)c3=S)nn2)c1 [Compound 167e, 1-(3-Benzonitrile)triazolylpentyl-3-hydroxypyridine-2-thione]
IC50 (HDAC8; SAMDI, read-out: HDAC8 IC50): 2.83 µM | IC50 (HDAC8; [8]): 2.4 ± 0.263 µM | IC50 (HDAC6; SAMDI, read-out: HDAC6 IC50): 0.356 µM | IC50 (HDAC6; [9]): 0.637 µM and 0.356 µM | IC50 [2]: 3.49 ± 0.34 µM | IC50 ([2]; Homo sapiens, LNCaP): 4.95 ± 0.43 µM | IC50 [3, 12]: 5.18 ± 1.18 µM | IC50 ([3]; read-out: Jurkat (μm)): 3.44 ± 0.57 µM

CN(C)c1ccc(-c2ccc(Cn3cccc(O)c3=S)cc2)cc1 [Compound 149g, 1-(4-Dimethylamino-(1,1′-biphenylmethyl))-3-hydroxyoxypyridine-2-thione]
HDAC1 inhibition, symbol (HDAC1): NI (No significant Inhibition (below 20% Inhibition)) | IC50 (HDAC8; [8]): 2.86 ± 0.944 µM | HDAC6 inhibition, symbol (HDAC6; SAMDI): NI (No significant Inhibition (below 20% Inhibition)) | IC50 [1, 10]: > 20 µM | IC50 [1, 11]: 22.8 ± 3.8 µM | IC50 ([2]; Homo sapiens, LNCaP): 16.2 ± 1.11 µM | IC50 [3, 12]: 10.6 ± 0.97 µM

O=C(CCCCCCC(=O)Nc1ccccc1)NO [SAHA, suberoylanilide hydroxamic acid, reference compound]
IC90 ([7]; Leishmania donovani, read-out: Antileshmanial activity IC90 (μg/ml)): 50 µg/mL (≈ 189 µM) | S.I. D6 [5]: 4.8 | inhibition at 10 µM (HDAC6): 95%

CCN(CC)CCCC(C)Nc1ccnc2cc(Cl)ccc12 (centres unmarked) [Chloroquine, chloroquine, reference compound]
IC50 ([5]; D6, read-out: Plasmodium falciparum (D6 clone) IC50 (μg/ml), chloroquine-sensitive): 0.017 µg/mL (≈ 0.0531 µM) | Plasmodium falciparum (D6 clone) IC50 [5]: 0.011 µg/mL | IC50 ([6]; W2, read-out: Plasmodium falciparum (W2 clone) IC50 (μg/ml), chloroquine-resistant): 0.125 µg/mL (≈ 0.391 µM) | Plasmodium falciparum (W2 clone) IC50 [6]: 0.14 µg/mL

C[C@@H]1[C@H](O)[C@@H](C)/C=C/C=C/C=C/C=C/C=C/C=C/C=C/[C@H](O[C@@H]2O[C@H](C)[C@@H](O)[C@H](N)[C@@H]2O)C[C@@H]2O[C@](O)(C[C@@H](O)C[C@@H](O)[C@H](O)CC[C@@H](O)C[C@@H](O)CC(=O)O[C@H]1C)C[C@H](O)[C@H]2C(=O)O [Amphotericine B, Amphotericin B, reference compound]
Antileshmanial activity IC90 ([7]; promastigotes): 0.32 µg/mL and 0.3 µg/mL

Cc1ccccc1-c1ccc(Cn2cccc(O)c2=S)cc1 [Compound 149f, 1-(2-Methyl-(1,1′-biphenylmethyl))-3-hydroxyoxypyridine-2-thione]
HDAC1 inhibition, symbol (HDAC1): NI (No significant Inhibition (below 20% Inhibition)) | IC50 (HDAC6; [9]): 0.306 ± 0.069 µM | IC50 [1, 10]: 13.6 ± 2.91 µM | IC50 ([2]; Homo sapiens, LNCaP): 7.75 ± 0.73 µM
